Test results reported in ChEMBL document CHEMBL6121045, “Effects of Heparan Sulfate Trisaccharide Containing Oleanolic Acid in Attenuating Hyperphosphorylated Tau-Induced Cell Dysfunction Associated with Alzheimer's Disease” (J Med Chem, 2025).
Active and inactive are the calls of the source. The rule behind the calls is not given here.

Assays:
[1] = tested on: SH-SY5Y; assay: Protective activity against thapsigargin induced ER-stress in human SH-SY5Y cells assessed as reduction ATF4 mRNA expression at 5 uM incubated for 24 hrs by qRT-PCR analysis; type: functional, cell-based
[2] = tested on: SH-SY5Y; assay: Protective activity against tunicamycin induced ER-stress in human SH-SY5Y cells assessed as reduction ATF4 mRNA expression at 5 uM incubated for 24 hrs by qRT-PCR analysis; type: functional, cell-based
[3] = tested on: SH-SY5Y; assay: Protective activity against tunicamycin induced ER-stress in human SH-SY5Y cells assessed as reduction Xbp1s mRNA expression at 5 uM incubated for 24 hrs by qRT-PCR analysis; type: functional, cell-based
[4] = tested on: SH-SY5Y; assay: Protective activity against p-tau induced UPR response in human SH-SY5Y cells assessed as reduction ERdj4 mRNA expression at 5 uM by qRT-PCR analysis; type: functional, cell-based
[5] = tested on: SH-SY5Y; assay: Protective activity against thapsigargin induced ER-stress in human SH-SY5Y cells assessed as reduction Xbp1s mRNA expression at 5 uM incubated for 24 hrs by qRT-PCR analysis; type: functional, cell-based
[6] = tested on: SH-SY5Y; assay: Antiinflammatory activity against p-tau-induced human SH-SY5Y cells assessed as reduction in IRF3 mRNA expression at 5 uM by qRT-PCR analysis; type: functional, cell-based
[7] = tested on: SH-SY5Y; assay: Cytoprotective activity against p-tau-induced toxicity in human SH-SY5Y cells assessed as cell viability incubated for 12 hrs by CCK-8 assay; type: functional, cell-based
[8] = target: Microtubule-associated protein tau (Homo sapiens, UniProt P10636); assay: Inhibition of BLI biosensor-immobilized heparin binding to p-tau hyperphosphorylation (unknown origin) by Biolayer interferometry analysis
[9] = tested on: SH-SY5Y; assay: Protective activity against p-tau induced UPR response in human SH-SY5Y cells assessed as reduction spliced Xbp1 mRNA expression at 5 uM by qRT-PCR analysis; type: functional, cell-based
[10] = tested on: SH-SY5Y; assay: Protective activity against p-tau induced ER-stress in human SH-SY5Y cells assessed as reduction spliced Xbp1 mRNA expression at 5 uM by qRT-PCR analysis; type: functional, cell-based
[11] = tested on: SH-SY5Y; assay: Cytoprotective activity against p-tau-induced toxicity in human SH-SY5Y cells incubated for 24 hrs by TEM analysis; type: functional, cell-based
[12] = tested on: SH-SY5Y; assay: Antiinflammatory activity against p-tau-induced human SH-SY5Y cells assessed as reduction in IL1beta mRNA expression at 5 uM by qRT-PCR analysis; type: functional, cell-based
[13] = tested on: SH-SY5Y; assay: Protective activity against p-tau induced ER-stress in human SH-SY5Y cells assessed as reduction ERdj4 mRNA expression at 5 uM by qRT-PCR analysis; type: functional, cell-based
[14] = tested on: SH-SY5Y; assay: Protection against p-tau-induced morphological changes in human SH-SY5Y cells assessed as change in cell density at 5 uM incubated for 24 hrs by contrast microscopic analysis; type: functional, cell-based
[15] = tested on: SH-SY5Y; assay: Cytoprotective activity against p-tau-induced toxicity in human SH-SY5Y cells assessed as cell death at 8 uM incubated for 12 hrs by CCK-8 assay; type: functional, cell-based
[16] = tested on: SH-SY5Y; assay: Protective activity against p-tau induced ER-stress associated apoptosis in human SH-SY5Y cells assessed as reduction in TRB3 mRNA expression by qRT-PCR analysis; type: functional, cell-based
[17] = tested on: SH-SY5Y; assay: Protection against p-tau-induced morphological changes in human SH-SY5Y cells assessed as change in cell morphology at 5 uM incubated for 24 hrs by contrast microscopic analysis; type: functional, cell-based
[18] = tested on: SH-SY5Y; assay: Protective activity against p-tau induced UPR response in human SH-SY5Y cells assessed as reduction Bip mRNA expression at 5 uM by qRT-PCR analysis; type: functional, cell-based
[19] = tested on: SH-SY5Y; assay: Antiinflammatory activity against p-tau-induced human SH-SY5Y cells assessed as reduction in TNFalpha mRNA expression at 5 uM by qRT-PCR analysis; type: functional, cell-based
[20] = target: T1, Platelet factor 4 (Homo sapiens, UniProt P02776); assay: Binding affinity to human recombinant PF4 by Biolayer interferometry analysis
T1 sequence (P02776 whole entry): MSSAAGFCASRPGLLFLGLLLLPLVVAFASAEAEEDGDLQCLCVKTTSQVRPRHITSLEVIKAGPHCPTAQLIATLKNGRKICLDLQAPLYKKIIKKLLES

[21] = tested on: SH-SY5Y; assay: Cytoprotective activity against p-tau-induced toxicity in human SH-SY5Y cells assessed as reduction in cell viability at 8 uM incubated for 12 hrs by CCK-8 assay; type: functional, cell-based
[22] = tested on: SH-SY5Y; assay: Protective activity against thapsigargin induced ER-stress in human SH-SY5Y cells assessed as reduction P58ipk mRNA expression at 5 uM incubated for 24 hrs by qRT-PCR analysis; type: functional, cell-based
[23] = tested on: SH-SY5Y; assay: Protective activity against p-tau induced ER-stress associated apoptosis in human SH-SY5Y cells assessed as reduction in CHOP mRNA expression by qRT-PCR analysis; type: functional, cell-based
[24] = tested on: SH-SY5Y; assay: Protective activity against tunicamycin induced ER-stress in human SH-SY5Y cells assessed as reduction P58ipk mRNA expression at 5 uM incubated for 24 hrs by qRT-PCR analysis; type: functional, cell-based
[25] = tested on: SH-SY5Y; assay: Protective activity against p-tau induced ER-stress associated apoptosis in human SH-SY5Y cells assessed as reduction in ATF4 mRNA expression by qRT-PCR analysis; type: functional, cell-based
[26] = tested on: SH-SY5Y; assay: Protective activity against p-tau induced ER-stress in human SH-SY5Y cells assessed as reduction Bip mRNA expression at 5 uM by qRT-PCR analysis; type: functional, cell-based
[27] = tested on: SH-SY5Y; assay: Protective activity against p-tau induced ER-stress associated apoptosis in human SH-SY5Y cells assessed as reduction in GADD34 mRNA expression by qRT-PCR analysis; type: functional, cell-based
[28] = tested on: SH-SY5Y; assay: Cytoprotective activity against p-tau-induced toxicity in human SH-SY5Y cells assessed as reduction in cell viability at 8 uM incubated for 12 hrs by CCK-8 assay relative to control; type: functional, cell-based
[29] = tested on: SH-SY5Y; assay: Cytoprotective activity against p-tau-induced toxicity in human SH-SY5Y cells assessed as reduction in cell viability at 0.3 uM incubated for 12 hrs by CCK-8 assay; type: functional, cell-based

Microtubule-associated protein tau, sequence (P10636 whole entry, canonical isoform): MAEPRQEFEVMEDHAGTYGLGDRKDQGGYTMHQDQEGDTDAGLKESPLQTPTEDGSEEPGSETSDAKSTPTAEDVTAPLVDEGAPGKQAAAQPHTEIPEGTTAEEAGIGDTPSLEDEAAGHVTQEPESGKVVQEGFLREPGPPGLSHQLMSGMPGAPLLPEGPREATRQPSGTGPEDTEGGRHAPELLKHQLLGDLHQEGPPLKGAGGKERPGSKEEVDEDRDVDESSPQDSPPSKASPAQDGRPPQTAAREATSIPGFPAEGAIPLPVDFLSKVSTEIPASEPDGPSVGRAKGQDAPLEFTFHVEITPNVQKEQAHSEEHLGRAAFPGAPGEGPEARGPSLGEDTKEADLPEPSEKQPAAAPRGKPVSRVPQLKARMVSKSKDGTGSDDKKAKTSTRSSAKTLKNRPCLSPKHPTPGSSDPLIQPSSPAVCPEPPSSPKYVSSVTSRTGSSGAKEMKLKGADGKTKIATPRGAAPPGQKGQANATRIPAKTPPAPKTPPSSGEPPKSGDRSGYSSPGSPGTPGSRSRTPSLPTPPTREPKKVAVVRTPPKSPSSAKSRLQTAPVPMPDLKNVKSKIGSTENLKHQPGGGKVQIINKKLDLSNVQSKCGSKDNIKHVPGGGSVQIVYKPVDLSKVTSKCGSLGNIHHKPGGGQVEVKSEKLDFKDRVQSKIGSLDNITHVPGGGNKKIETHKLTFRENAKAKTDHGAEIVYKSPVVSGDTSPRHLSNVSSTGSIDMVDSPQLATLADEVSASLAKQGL

| Structure (SMILES) | Activity [6] | EC50 [7] | Activity [11] | Activity [12] | Activity [15] | Activity [16] | Activity [19] | Activity [23] | Activity [25] | Activity [27] | further results |
| --- | --- | --- | --- | --- | --- | --- | --- | --- | --- | --- | --- |
| COC(=O)[C@]12CCC(C)(C)C[C@H]1C1=CCC3[C@@]4(C)CC[C@H](O[C@@H]5O[C@H](COS(=O)(=O)O)[C@@H](O[C@@H]6O[C@H](C(=O)O)[C@@H](O[C@H]7O[C@H](COS(=O)(=O)O)[C@@H](O)[C@H](O)[C@H]7NS(=O)(=O)O)[C@H](O)[C@H]6O)[C@H](O)[C@H]5NS(=O)(=O)O)C(C)(C)C4CC[C@@]3(C)C1(C)CC2 (some centres undefined) | Active | 2.69 µM | Active | Active | inactive | Active | Active | Active | Active | Active | Activity [1]: inactive; Activity [2]: inactive; Activity [3]: inactive; Activity [4]: Active; Activity [5]: inactive; IC50 [8]: 28.8 µM; Activity [9]: Active; Activity [10]: Active; Activity [13]: Active; Activity [14]: Active; Activity [17]: Active; Activity [18]: Active; IC50 [20]: 21.8 µM; Activity [21]: Active; Activity [22]: inactive; Activity [24]: inactive; Activity [26]: Active |
| CN1CCc2cccc3c2[C@H]1Cc1ccc(O)c(O)c1-3 [APOMORPHINE] | – | 2.9 µM | Active | – | – | – | – | – | – | – | – |
| COC(=O)[C@]12CCC(C)(C)C[C@H]1C1=CCC3[C@@]4(C)CC[C@H](O)C(C)(C)C4CC[C@@]3(C)C1(C)CC2 (some centres undefined) | – | – | – | – | – | – | – | – | – | – | Activity [28]: No effect |
| O=C(O)[C@H]1O[C@@H](O[C@H]2[C@H](O)[C@@H](NS(=O)(=O)O)[C@H](OCCNS(=O)(=O)O)O[C@@H]2COS(=O)(=O)O)[C@H](O)[C@@H](O)[C@@H]1O[C@H]1O[C@H](COS(=O)(=O)O)[C@@H](O)[C@H](O)[C@H]1NS(=O)(=O)O | inactive | – | – | inactive | inactive | inactive | inactive | inactive | inactive | inactive | Activity [29]: Moderate_effect |
